Columns and labels:
Type in all cases: in vivo
[1] = system: Echinochloa crus-galli (ECHCG); test: Example B pre-emergence herbicidal test, ECHCG; settings: Echinochloa crus-galli, 312 h, rate 250 g/ha, evaluated after 13 days, 100=total damage to plant, 0=no damage to plant
Procedure, shortened: (§1)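 After sowing in standard soil, pots spent a day in the glasshouse (24/16° C, 14 h photoperiod, 65% humidity) before spraying with compound in acetone/water 50:50 with 0.5% Tween 20. Watering followed twice a day, and plants were evaluated 13 days on, with 100 meaning complete damage.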

[2] = system: Echinochloa crus-galli (ECHCG); test: Example B post-emergence herbicidal test, ECHCG; settings: Echinochloa crus-galli, 312 h, rate 250 g/ha, evaluated after 13 days, scale 0-100, read-out: Post-emergence activity ECHCG (100=total damage to plant; 0=no damage to plant)
Procedure, shortened: (§2)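 Plants grown from seed in standard soil for 8 days in a glasshouse (24/16 °C day/night, 14 h light, 65% humidity), then sprayed with an aqueous solution from the active ingredient formulated in acetone/water (50:50) with 0.5% Tween 20. Damage scored after 13 days, 0 (none) to 100 (total).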

[3] = system: Winter Wheat variety 'Hereward' seed treated with cloquintocet mexyl; test: Example C crop damage test on Winter Wheat seed treated with safener cloquintocet mexyl, post-emergence; settings: rate 250 g/ha, seed treated with cloquintocet mexyl 0.5 grams per kilogram of dry seed, evaluated after 13 days
Protocol: Seeds of the Winter Wheat variety ‘Hereward’ were seed treated with a wettable powder formulation of the cereal herbicide safener, cloquintocet mexyl, at a rate of 0.5 grams per kilogram of dry seed prior to the initiation of glasshouse testing. One seed was sown per 1.5 inch plastic pot into a sandy loam soil at a depth of 1 cm, 8 days prior to application of the test compounds and was watered and grown under controlled conditions in a glasshouse (at 24/16° C., day/night; 14 hours light; 65% humidity). The plants were sprayed Post-emergence with an aqueous spray solution derived from the formulation of the technical active ingredient in acetone/water (50:50) solution containing 0.5% Tween 20 (polyoxyethelyene sorbitan monolaurate, CAS RN 9005-64-5). The test plants were then grown in a glasshouse under controlled conditions in a glasshouse (at 24/16° C., day/night; 14 hours light; 65% humidity) and watered twice daily. After 13 days for pre and post-emergence, the test was evaluated (100=total damage to plant; 0=no damage to plant).

[4] = system: Alopecurus myosuroides (ALOMY); test: Example B post-emergence herbicidal test, ALOMY; settings: Alopecurus myosuroides, 312 h, rate 250 g/ha, evaluated after 13 days, scale 0-100, read-out: Post-emergence activity ALOMY (100=total damage to plant; 0=no damage to plant)
Procedure, shortened: as §2

[5] = system: Alopecurus myosuroides (ALOMY); test: Example B pre-emergence herbicidal test, ALOMY; settings: Alopecurus myosuroides, 312 h, rate 250 g/ha, evaluated after 13 days, 100=total damage to plant, 0=no damage to plant
Procedure, shortened: as §1

Avena fatua (AVEFA) [6] = test: Example B pre-emergence herbicidal test, AVEFA; settings: Avena fatua, 312 h, rate 250 g/ha, evaluated after 13 days, 100=total damage to plant, 0=no damage to plant
Procedure, shortened: as §1

Avena fatua (AVEFA) [7] = test: Example B post-emergence herbicidal test, AVEFA; settings: Avena fatua, 312 h, rate 250 g/ha, evaluated after 13 days, scale 0-100, read-out: Post-emergence activity AVEFA (100=total damage to plant; 0=no damage to plant)
Procedure, shortened: as §2

Lolium perenne (LOLPE) [8] = test: Example B post-emergence herbicidal test, LOLPE; settings: Lolium perenne, 312 h, rate 250 g/ha, evaluated after 13 days, scale 0-100, read-out: Post-emergence activity LOLPE (100=total damage to plant; 0=no damage to plant)
Procedure, shortened: as §2

Lolium perenne (LOLPE) [9] = test: Example B pre-emergence herbicidal test, LOLPE; settings: Lolium perenne, 312 h, rate 250 g/ha, evaluated after 13 days, 100=total damage to plant, 0=no damage to plant
Procedure, shortened: as §1

[10] = system: Winter Wheat variety 'Hereward'; test: Example C crop damage test on Winter Wheat, post-emergence, no safener; settings: Triticum aestivum, 312 h, rate 250 g/ha, evaluated after 13 days, read-out: Winter Wheat (Hereward) damage (100=total damage to plant; 0=no damage to plant)
Protocol: Seeds of the Winter Wheat variety ‘Hereward’ were sown in standard soil in pots. After 8 days cultivation under controlled conditions in a glasshouse (at 24/16° C., day/night; 14 hours light; 65% humidity), the plants were sprayed with an aqueous spray solution derived from the formulation of the technical active ingredient in acetone/water (50:50) solution containing 0.5% Tween 20 (polyoxyethelyene sorbitan monolaurate, CAS RN 9005-64-5). The test plants were then grown in a glasshouse under controlled conditions in a glasshouse (at 24/16° C., day/night; 14 hours light; 65% humidity) and watered twice daily. After 13 days for pre and post-emergence, the test was evaluated (100=total damage to plant; 0=no damage to plant).

Structure (SMILES) | pest or weed control at 250 g/ha [1] [%] | pest or weed control at 250 g/ha [2] [%] | Winter Wheat (Hereward) + cloquintocet mexyl damage (100=total damage to plant; 0=no damage to plant) [3] | pest or weed control at 250 g/ha [4] [%] | pest or weed control at 250 g/ha [5] [%] | pest or weed control at 250 g/ha (Avena fatua (AVEFA) [6]) [%] | pest or weed control at 250 g/ha (Avena fatua (AVEFA) [7]) [%] | pest or weed control at 250 g/ha (Lolium perenne (LOLPE) [8]) [%] | pest or weed control at 250 g/ha (Lolium perenne (LOLPE) [9]) [%] | crop damage to winter wheat at 250 g/ha [10] [%]
Cc1cc(C)c(C2C(=O)C/C(=C\C3CCS(=O)(=O)CC3)C2=O)c(C)c1 (centres unmarked) [Compound T10] | 70 | 80 | 20 | 70 | 70 | 40 | 80 | 70 | 90 | 60
CCCC(=O)N1CCC(CC2CC(=O)C(c3c(C)cc(C)cc3C)C2=O)CC1 (centres unmarked) [Compound T84] | 60 | 90 | 60 | 90 | 50 | 50 | 100 | 100 | 90 | 70
Cc1cc(C)c(C2C(=O)CC(CC3CCN(C(=O)c4ccccc4)C3)C2=O)c(C)c1 (centres unmarked) [Compound T41] | 100 | 100 | 80 | 100 | 70 | 90 | 100 | 100 | 90 | 90
Cc1cc(C)c(C2=C(OC(=O)C(C)(C)C)CC(CC3CCOC3)C2=O)c(C)c1 (centres unmarked) [Compound P7] | 100 | 90 | 0 | 100 | 100 | 90 | 80 | 100 | 100 | 70
Cc1cc(C)c(C2C(=O)CC(CC3CCN(C(=O)c4ccc(F)cc4)CC3)C2=O)c(C)c1 (centres unmarked) [Compound T75] | 70 | 90 | 50 | 90 | 30 | 70 | 100 | 100 | 80 | 60
Cc1cc(C)c(C2C(=O)CC(CC3COCCO3)C2=O)c(C)c1 (centres unmarked) [Compound T40] | 100 | 100 | 10 | 80 | 100 | 80 | 90 | 100 | 100 | 60
Cc1cc(C)c(C2C(=O)CC(CC3CCOC(C)(C)C3)C2=O)c(C)c1 (centres unmarked) [Compound T39] | 100 | 100 | 70 | 90 | 100 | 100 | 100 | 100 | 100 | 80
Cc1cc(C)c(C2C(=O)CC(CC3CCN(C(=O)C4CC4)CC3)C2=O)c(C)c1 (centres unmarked) [Compound T88] | 80 | 90 | 50 | 90 | 90 | 90 | 100 | 90 | 100 | 70
Cc1cc(C)c(C2C(=O)C/C(=C\C3CCOC(C)(C)C3)C2=O)c(C)c1 (centres unmarked) [Compound T37] | 100 | 100 | 70 | 90 | 100 | 90 | 100 | 100 | 100 | 80
Cc1cc(C)c(C2C(=O)C/C(=C\C3CCCOC3)C2=O)c(C)c1 (centres unmarked) [Compound T14] | 100 | 100 | 60 | 100 | 100 | 100 | 100 | 100 | 100 | 80
Cc1cc(-c2ccccc2)cc(C)c1C1C(=O)CC(CC2CCOCC2)C1=O (centres unmarked) [Compound T67] | 100 | 100 | 30 | 90 | 90 | 90 | 100 | 100 | 100 | 70
